Ends that are not written are not given here.
Molecular target: T1, GST-SURF4^49-60 (Homo sapiens, UniProt O15260)
T1 construct: SURF4 (49-60) in the same buffer was in the calorimetric cell; made in house; host or cells: Escherichia coli
Assay: Isothermal titration calorimetry, CW peptide vs GST-SURF4(49-60)
Assay type: binding
Conditions: ITC (PEAQ-ITC); 500 µM CW peptide into 50 µM GST-SURF4 (49-60); 10 mM PBS, 0.5 mM HEPES, 6.3 mM sorbitol, 1.75 mM KOAc, 25 µM Mg(OAc)2, 25 µM BSA, 0.003% Triton, pH 7.2; one set of site model; read-out: Kd of CW peptides for GST-SURF4^49-60
From the text: To measure a direct interaction, we immobilized the first luminal loop of SURF4 (SEQRDYIDTTWNC, referred to as SURF4 luminal peptides) on beads and then performed pull down analysis using purified GST and Shh^25-49-GST as prey (Fig. 3H). […] As an additional test, we performed pull down analysis using peptides corresponding to the CW motif (KRRHPKKC, referred to as CW peptides) as bait and purified GST-SURF4^49-60 as prey (Fig. 3J). […] We then immobilized peptides corresponding to the first intracellular loop of Frizzled6 (VRRFRYPERPC, referred to as RRFR) ([27]) on beads.
The samples were centrifuged at 55,000 rpm in a TLS55 rotor in a Beckman ultracentrifuge for 2 hr at 4 °C.
After centrifugation, fractions were collected from the top to the bottom of the tube, and the top fraction was analyzed by SDS-PAGE and immunoblotting.
Isothermal titration calorimetry (ITC)
We utilized a commercial isothermal titration calorimeter (PEAQ-ITC system, MicroCal, Malvern Panalytical, United Kingdom) to perform titration experiments. In these experiments, a 500 µM solution of CW peptide in a diluted binding buffer (10 mM PBS, 0.5 mM HEPES, 6.3 mM sorbitol, 1.75 mM KOAc, 25 µM Mg(OAc)2 , 25 µM BSA, 0.003% Triton, pH 7.2) was loaded into the syringe of the ITC instrument and a 50 µM solution of GST -SURF4 (49-60) in the same buffer was in the calorimetric cell. […]

Sequence: KRRHPKKC [CW peptides]
- Kd: 2350 ± 90 nM

Reference: article PMC8931250, “A SURF4-to-proteoglycan relay mechanism that mediates the sorting and secretion of a tagged variant of sonic hedgehog” (Proceedings of the National Academy of Sciences of the …, 2022)
